These results are taken from ChEMBL document CHEMBL1201862, “PubChem BioAssay data set” (2004).

Test systems include 786-0; ACHN; CAKI-1; CCRF-CEM; HT-29; LOX IMVI; M14; MCF7; MDA-N; OVCAR-3; OVCAR-5; OVCAR-8; PC-3; SF-295; SF-539; SK-MEL-2; SK-MEL-5; SN12C; SR.
Holding throughout (assay): DTP human tumour cell line panel, 48 h

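Interpolation was linear, between the two tested concentrations surrounding the appropriate level; five concentrations were tested over 48 hours in 96-well plates. Abbreviation: GI50, concentration required for 50% inhibition of growth.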 Activity calls are given as the source filed them. No stated cut-off is given here; in the data, active = GI50 up to about 1.1 µM and inactive = higher.

As for `COc1cccc(/C=C\c2ccnc3ccccc23)c1`, the GI50 in the assay on 786-0 is > 10 µM (inactive); in the assay on ACHN, > 10 µM (inactive); in the assay on CAKI-1 it was > 10 µM (inactive); in the assay with CCRF-CEM, > 10 µM (inactive); in the assay on HT-29, > 10 µM (inactive); in the assay on LOX IMVI it was 9.51 µM (inactive). In addition, the GI50 with M14, in the assay on MCF7, with MDA-N, in the assay on OVCAR-3, with OVCAR-5 and in the assay with OVCAR-8 was > 10 µM (inactive) each time. In addition, the GI50 in the assay on PC-3, in the assay with SF-295, in the assay on SF-539, with SK-MEL-2, with SK-MEL-5 and in the assay on SN12C was > 10 µM (inactive) in each case.
As for `CC(C)C/N=C(\N)N=C(N)N`, the GI50 in the assay on 786-0, with ACHN, with HT-29, in the assay on LOX IMVI, in the assay with M14 and in the assay on MCF7 was > 100 µM (inactive) in each case. Also, the GI50 in the assay on MDA-N, in the assay on OVCAR-3, with OVCAR-5, with OVCAR-8, with PC-3 and in the assay with SF-295 was > 100 µM (inactive) throughout. For the same compound, the GI50 with SF-539, with SK-MEL-2, in the assay with SK-MEL-5, in the assay with SN12C and in the assay on SR was > 100 µM (inactive) throughout.
`N[C@@H](CCC(=O)NC(Cc1ccccc1)C(=O)NCP(=O)(O)O)C(=O)O` (some centres undefined): the GI50 in the assay with 786-0, in the assay on ACHN, in the assay on HT-29, with LOX IMVI, in the assay on MCF7 and in the assay on MDA-N was > 100 µM (inactive) throughout. For the same compound, the GI50 was > 100 µM (inactive) with OVCAR-3; > 100 µM (inactive) in the assay on OVCAR-5; > 100 µM (inactive) with OVCAR-8; > 100 µM (inactive) with PC-3; 0.513 µM (active) with SF-295; > 100 µM (inactive) in the assay on SF-539. Further, the GI50 in the assay on SK-MEL-2, with SK-MEL-5, in the assay with SN12C and in the assay on SR was > 100 µM (inactive) each time.
With `Oc1[nH]c(Nc2ccc(F)c(Cl)c2)nc2ncnc1-2`, the GI50 with 786-0 is 82 µM (inactive); with ACHN, > 100 µM (inactive); in the assay with CAKI-1, > 100 µM (inactive); in the assay with CCRF-CEM, > 100 µM (inactive); in the assay with HT-29, > 100 µM (inactive); with LOX IMVI, > 100 µM (inactive). The GI50 in the assay on M14, in the assay on MCF7, with MDA-N, in the assay on OVCAR-3, with OVCAR-5 and with OVCAR-8 was > 100 µM (inactive) each time. The GI50 in the assay with PC-3, in the assay on SF-295, in the assay with SF-539, in the assay with SK-MEL-2, with SK-MEL-5 and with SN12C was > 100 µM (inactive) each time.
On to `CC1C2(C)OC(=N)C(C#N)(C(c3ccccc3)O2)C1(C#N)C#N` (centres undefined), for which the GI50 in the assay with 786-0 was 21.2 µM (inactive); with ACHN, 38.1 µM (inactive); with CAKI-1, 13.7 µM (inactive); in the assay with CCRF-CEM, 17.6 µM (inactive); in the assay with HT-29 it was 18.1 µM (inactive); with LOX IMVI it was 17.2 µM (inactive). In addition, the GI50 in the assay on M14 is 13.9 µM (inactive); in the assay on MCF7, 21.2 µM (inactive); in the assay on MDA-N, 18.2 µM (inactive); in the assay with OVCAR-3, 15.1 µM (inactive); with OVCAR-5, 25.5 µM (inactive); with OVCAR-8, 30.4 µM (inactive). For the same compound, the GI50 is 22.8 µM (inactive) in the assay with PC-3; 86.5 µM (inactive) with SF-295; 20.3 µM (inactive) in the assay with SF-539; 16.9 µM (inactive) in the assay on SK-MEL-2; 16.7 µM (inactive) in the assay on SK-MEL-5; 16.6 µM (inactive) with SN12C.
`CCOC(=O)[C@@H]1C2C(=C[C@H]3[C@H]1C(=O)N1CCCC[C@H]31)CCCN2C(=O)OCc1ccccc1` (some centres undefined): the GI50 with 786-0 was 54.5 µM (inactive); in the assay on ACHN, 29.9 µM (inactive); in the assay on CAKI-1 it was 43.1 µM (inactive); in the assay with CCRF-CEM, 22.3 µM (inactive); in the assay on HT-29 it was 30.3 µM (inactive); in the assay with LOX IMVI, 33.3 µM (inactive). Further, the GI50 in the assay with M14 is 38.8 µM (inactive); with MCF7, 29.5 µM (inactive); with MDA-N, 35.7 µM (inactive); in the assay on OVCAR-3, 30.1 µM (inactive); with OVCAR-5, 76.4 µM (inactive); in the assay with OVCAR-8, 35.5 µM (inactive). Also, the GI50 is 28.1 µM (inactive) in the assay on PC-3; 32.5 µM (inactive) in the assay on SF-295; 43.6 µM (inactive) in the assay on SF-539; 22.8 µM (inactive) in the assay on SK-MEL-2; 31.6 µM (inactive) with SK-MEL-5; 47.5 µM (inactive) in the assay with SN12C.
As for `CCOC(=O)NC(Nc1ccc(C(=O)OCC)cc1)(C(F)(F)F)C(F)(F)F`, the GI50 is > 100 µM (inactive) with 786-0; 42.7 µM (inactive) in the assay with ACHN; 6.58 µM (inactive) with CCRF-CEM; > 100 µM (inactive) in the assay on HT-29; 4.26 µM (inactive) with LOX IMVI; > 100 µM (inactive) in the assay with M14. The GI50 is > 100 µM (inactive) with MCF7; 49.8 µM (inactive) in the assay with MDA-N; > 100 µM (inactive) in the assay on OVCAR-3; 79.8 µM (inactive) in the assay with OVCAR-5; > 100 µM (inactive) in the assay on OVCAR-8; 45 µM (inactive) in the assay with PC-3. For the same compound, the GI50 in the assay with SF-295 was > 100 µM (inactive); in the assay with SF-539, > 100 µM (inactive); in the assay on SK-MEL-5, 65.2 µM (inactive); in the assay on SN12C, > 100 µM (inactive); with SR, 86.3 µM (inactive).
Turning to `N/C(COc1ccc(Cl)cc1)=N\NC(=O)c1ccncc1`, the GI50 with 786-0 was 54.3 µM (inactive); in the assay on ACHN, > 100 µM (inactive); in the assay with CAKI-1, > 100 µM (inactive); in the assay with CCRF-CEM, 51.1 µM (inactive); in the assay with HT-29, > 100 µM (inactive); in the assay with LOX IMVI it was 38.4 µM (inactive). For the same compound, the GI50 in the assay with M14, with MCF7, in the assay with MDA-N, with OVCAR-3, in the assay on OVCAR-5 and with OVCAR-8 was > 100 µM (inactive) each time. For the same compound, the GI50 in the assay with PC-3, in the assay with SF-295, in the assay on SF-539, with SK-MEL-2 and in the assay with SN12C was > 100 µM (inactive) in each case.

One may read the GI50 as the concentration that inhibits growth by half.
